In PubChem BioAssay (NCI):
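Values below derive from 48-hour exposures of cells grown in 96-well plates, with endpoints linearly interpolated between the two concentrations bracketing the appropriate inhibition level. GI50 is the concentration that inhibits growth by half. TGI denotes the concentration required for complete inhibition of growth.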

Columns and labels:
Test in all cases: NCI tumour cell line growth inhibition, 48 h
CAKI-1 renal = system: CAKI-1 renal
HL-60(TB) leukemia = system: HL-60(TB) leukemia
HOP-92 NSCLC = system: HOP-92 NSCLC
MCF7 breast = system: MCF7 breast
NCI-H460 lung = system: NCI-H460 lung
OVCAR-3 ovarian = system: OVCAR-3 ovarian
OVCAR-4 ovarian = system: OVCAR-4 ovarian
SF-539 CNS = system: SF-539 CNS
SK-MEL-28 melanoma = system: SK-MEL-28 melanoma
SK-OV-3 ovarian = system: SK-OV-3 ovarian

Row | Compound | GI50 (CAKI-1 renal) | TGI (CAKI-1 renal) | GI50 (HL-60(TB) leukemia) | TGI (HL-60(TB) leukemia) | GI50 (HOP-92 NSCLC) | TGI (HOP-92 NSCLC) | GI50 (MCF7 breast) | TGI (MCF7 breast) | GI50 (NCI-H460 lung) | TGI (NCI-H460 lung) | GI50 (OVCAR-3 ovarian) | TGI (OVCAR-3 ovarian) | GI50 (OVCAR-4 ovarian) | TGI (OVCAR-4 ovarian) | GI50 (SF-539 CNS) | TGI (SF-539 CNS) | GI50 (SK-MEL-28 melanoma) | TGI (SK-MEL-28 melanoma) | GI50 (SK-OV-3 ovarian) | TGI (SK-OV-3 ovarian)
1 | O=S(=O)(NC1=NCCN1C(=S)SN1CCn2c1nsc2=S)c1ccc(Oc2ccccc2)cc1 | > 100 µM | > 100 µM | 2.78 µM | 11.3 µM | 74.2 µM | > 100 µM | 25.7 µM | > 100 µM | 51.2 µM | > 100 µM | > 100 µM | > 100 µM | 79.1 µM | > 100 µM | 49.5 µM | > 100 µM | > 100 µM | > 100 µM | > 100 µM | > 100 µM
2 | O=C1/C(=C\c2ccc(F)cc2)CN(C(=O)c2ccccc2F)C/C1=C\c1ccc(F)cc1 | 2.65 µM | 9.16 µM | 1.11 µM | 4.57 µM | 1.86 µM | 5.63 µM | 0.436 µM | 1.68 µM | 2.51 µM | 6.71 µM | 1.67 µM | 3.11 µM | 2.33 µM | 6.53 µM | 1.72 µM | 3.2 µM | 1.82 µM | 3.36 µM | 2.23 µM | 4.69 µM
3 | Cc1ccc(N)cc1[As]=[As]c1cc(N)ccc1C (stereo not given) | 1.5 µM | 2.86 µM | 2.01 µM | 5.8 µM | 0.997 µM | 2.4 µM | 0.537 µM | 2.75 µM | 3.08 µM | 12.2 µM | 1.62 µM | 3.02 µM | 1.42 µM | 2.79 µM | 1.39 µM | 2.76 µM | 1.39 µM | 2.83 µM | 3.59 µM | 9.43 µM
4 | Brc1ccccc2cc(-c3ccccc3)nc1-2 |  | 44.7 µM |  | 35.8 µM |  | 19.8 µM |  | 64.8 µM |  | 73.5 µM |  | 12.3 µM |  | 19.8 µM |  | 17.7 µM |  | 29.8 µM |  | 37.8 µM
5 | CCN(CC)CCNC(=O)c1cccc2c1-c1ccccc1C2=O | > 100 µM | > 100 µM |  |  | > 100 µM | > 100 µM | > 100 µM | > 100 µM | > 100 µM | > 100 µM | > 100 µM | > 100 µM | > 100 µM | > 100 µM | 95.1 µM | > 100 µM | > 100 µM | > 100 µM | > 100 µM | > 100 µM
6 | CN1CCC2(CC1)N=C(SCC(=O)Nc1cnc3ccccc3c1)C(c1ccc(Br)cc1)=N2 | 1.64 µM | 3.94 µM | 1.61 µM | 3.75 µM | 1.22 µM | 3.35 µM | 1.8 µM | 3.55 µM | 2.03 µM | 4.28 µM | 3.29 µM | 12 µM | 3.52 µM | 15.8 µM | 1.74 µM | 3.41 µM | 1.79 µM | 3.3 µM | 4.25 µM | 15.9 µM
7 | CN1CCN(CCCNC(=O)c2c3c(n4ccccc24)C(=O)c2ncccc2C3=O)CC1 | 6.76 µM | 46.3 µM | 2.23 µM | 5.76 µM | 3.03 µM | 13.4 µM | 0.612 µM | 2.62 µM | 0.316 µM | 1.75 µM | 0.4 µM | 3.53 µM | 0.413 µM | 1.56 µM | 1.99 µM | 6.56 µM | 4.57 µM | 19.1 µM | 3.46 µM | 19.6 µM
8 | COC(=O)C1C(C(=O)O)C2(c3ccccc3)C(=O)C1(c1ccccc1)C(c1ccccc1)=C2c1ccccc1 (stereo not given) | 20.2 µM | 40.9 µM |  |  | 10.6 µM | 30.9 µM | 19.6 µM | 37.6 µM | 13.6 µM | 29.1 µM | 19.7 µM | 50.4 µM | 15.3 µM | 48.3 µM | 19.5 µM | 36.3 µM |  |  | 18.3 µM | 36.6 µM
9 | NC(=O)c1c(NC(=O)c2cccs2)sc2c1CCC(=O)C2 | 2.65 µM | > 100 µM | 2.45 µM | 7.13 µM | 1.38 µM | 4 µM | 2.48 µM | 18.7 µM | 2.98 µM | > 100 µM | 1.8 µM | 5.93 µM | 0.761 µM | 2.75 µM | 1.54 µM | 5.06 µM | 4.52 µM | > 100 µM |  | 
10 | COC(=O)[C@]12CC[C@@H](C)[C@H](C)[C@@H]1C1=CC[C@@H]3[C@@]4(C)C(C=O)=C[C@@](C)(CO)[C@@H]4[C@H](O)C[C@@]3(C)[C@]1(C)CC2 | 3.71 µM | 16.8 µM |  |  | 6.18 µM | 20.9 µM | 2.44 µM | 10.3 µM | 3.03 µM | 9.6 µM | 2.54 µM | 7.78 µM | 4.17 µM | 16.8 µM | 10.1 µM | 22.8 µM | 3.33 µM | 12.4 µM | 17 µM | 31.6 µM
